According to patent US20080194585A1, “Fungicidal Pyrazine Derivatives” (priority 2005, published 2008):
Marks after values point to notes of the source that are not given here.

Legend:
[1] = system: Erysiphe graminis f. sp. tritici; test: Test L: wheat powdery mildew, preventive spray on wheat seedlings
[2] = system: Colletotrichum orbiculare; test: Test B: cucumber Colletotrichum anthracnose, preventive spray on cucumber seedlings
Phytophthora infestans = test: whole plant or invertebrate; type: in vivo
fusarium graminearium = test: Test I: wheat head scab, preventive spray on wheat seedlings
Experimental: (the causal agent of wheat head scab) and incubated in a saturated atmosphere at 20° C. for 72 h, and then moved to a growth chamber at 22° C. for 5 days, after which disease ratings were made.

Botrytis cinerea = test: Test E: tomato botrytis, preventive spray on tomato seedlings
Rhizoctonia oryzae = test: Test G: turf brown patch, preventive spray on creeping bent grass seedlings
Experimental: (the causal agent of turf brown patch) and incubated in a saturated atmosphere at 27° C. for 24 h, and then moved to a growth chamber at 27° C. for 5 days, after which disease ratings were made.

Pythium aphanidermatum = test: Test A: bluegrass pythium blight, preventive spray on bluegrass seedlings
Plasmopara viticola = test: Test D: grape downy mildew, spray after inoculation of grape seedlings; type: in vivo
Source text: Upon removal, disease ratings were made. […] A dash (-) indicates no test results.

Sclerotinia sclerotiorum = test: Test C: cucumber white mold, preventive spray on cucumber seedlings
Septoria tritici = test: Test J: wheat leaf blotch, preventive spray on wheat seedlings; type: in vivo
Source text: A dash (-) indicates no test results.

Septoria nodorum = test: Test H: wheat glum blotch, preventive spray on wheat seedlings
Experimental: (the causal agent of wheat glum blotch) and incubated in a saturated atmosphere at 20° C. for 48 h, and then moved to a growth chamber at 22° C. for 5 days, after which disease ratings were made.

[3] = system: Puccinia recondita f. sp. tritici; test: Test K: wheat leaf rust, preventive spray on wheat seedlings

Structure (SMILES)	Test L disease control rating ([1]; 40 ppm (*))	Test B disease control rating ([2]; 40 ppm (*))	Test F disease control rating (Phytophthora infestans; 40 ppm (*))	Test I disease control rating (fusarium graminearium; 40 ppm (*))	Test E disease control rating (Botrytis cinerea; 40 ppm (*))	Test G disease control rating (Rhizoctonia oryzae; 40 ppm (*))	Test A disease control rating (Pythium aphanidermatum; 40 ppm (*))	Test D disease control rating (Plasmopara viticola; 40 ppm (*))	Test C disease control rating (Sclerotinia sclerotiorum; 40 ppm (*))	Test J disease control rating (Septoria tritici; 40 ppm (*))	Test H disease control rating (Septoria nodorum; 40 ppm (*))	Test K disease control rating ([3]; 40 ppm (*))	also measured
CC(C)Cn1c(C(C)c2ccccc2)c(Cl)nc(-n2cncn2)c1=O (stereo not drawn) [compound 133]	0* %	0* %	0* %	0* %	0* %	0* %	0* %	0* %	0* %	23* %	0* %	0* %	
CC(C)Cn1c(-c2cc(F)cc(F)c2F)c(Cl)nc(-n2cccn2)c1=O [compound 139]	99* %	0* %	0* %	0* %	100* %	91* %	0* %	0* %	95* %	100* %	97* %	99* %	
COC(=O)c1ccc(-c2c(Cl)nc(-n3cncn3)c(=O)n2CC(C)C)cc1 [compound 146]	0* %	0* %	0* %	0* %	0* %	0* %	0* %	0* %	0* %	5* %	0* %	0* %	
COC(=O)c1ccc(-c2c(Cl)nc(-n3cccn3)c(=O)n2CC(C)C)cc1 [compound 147]													Test L disease control rating ([1]; 200 ppm): 0%; Test B disease control rating ([2]; 200 ppm): 0%; Test F disease control rating (Phytophthora infestans; 200 ppm): 93%; Test I disease control rating (fusarium graminearium; 200 ppm): 0%; Test E disease control rating (Botrytis cinerea; 200 ppm): 97%; Test G disease control rating (Rhizoctonia oryzae; 200 ppm): 0%; Test A disease control rating (Pythium aphanidermatum; 200 ppm): 0%; Test D disease control rating (Plasmopara viticola; 200 ppm): 92%; Test C disease control rating (Sclerotinia sclerotiorum; 200 ppm): 0%; Test J disease control rating (Septoria tritici; 200 ppm): 96%; Test H disease control rating (Septoria nodorum; 200 ppm): 0%; Test K disease control rating ([3]; 200 ppm): 80%
CC(C)Cn1c(-c2ccccc2)c(Cl)nc(-n2cccn2)c1=O [compound 172]	0* %	0* %	57* %	0* %	07* %	41* %	0* %	0* %	0* %	64* %	0* %	0* %	
CC(C)Cn1c(-c2ccccc2)c(Cl)nc(-n2cncn2)c1=O [compound 173]	0* %	0* %	0* %	0* %	0* %	0* %	0* %	0* %	0* %	45* %	0* %	0* %	
COc1ccccc1-c1c(Cl)nc(-n2cncn2)c(=O)n1CC(C)C [compound 177]	0* %	0* %	0* %	0* %	0* %	0* %	0* %	0* %	0* %	7* %	0* %	0* %	
CC(C)Cn1c(-c2cccc(F)c2)c(Cl)nc(-n2cncn2)c1=O [compound 230]	0* %	0* %	0* %	0* %	82* %	0* %	0* %	0* %	0* %	24* %	0* %	0* %	
CC(C)Cn1c(-c2cccc(F)c2)c(Cl)nc(-n2cccn2)c1=O [compound 231]	0* %	0* %	0* %	0* %	99* %	0* %	0* %	0* %	0* %	89* %	0* %	28* %	
CC(C)Cn1c(-c2cccc(C(F)(F)F)c2)c(Cl)nc(-n2cncn2)c1=O [compound 232]	0* %	0* %	0* %	0* %	0* %	0* %	0* %	0* %	0* %	0* %	0* %	0* %	
CC(C)Cn1c(-c2cccc(C(F)(F)F)c2)c(Cl)nc(-n2cccn2)c1=O [compound 233]	0* %	0* %	0* %	0* %	0* %	0* %	0* %	0* %	0* %	0* %	0* %	0* %	
CC(C)Cn1c(-c2cccc(Br)c2)c(Cl)nc(-n2cncn2)c1=O [compound 234]	0* %	0* %	0* %	0* %	0* %	0* %	0* %	0* %	0* %	0* %	0* %	0* %	
